Assay results from patent US7897369B2, “Isoprenoid wax ester synthases, isoprenoid acyl CoA-synthetases, and uses thereof” (Regents of the University of Minnesota, priority 2007, dated 2011).
“Also recorded” adds a separate entry of the source.

Tests used:
WS1 [1] = test: DGAT assay (TLC); format: biochemical, Marinobacter hydrocarbonoclasticus DSM 8798; settings: oleoyl-CoA as acyl donor, dipalmitoyl-glycerol as acyl acceptor
Description: (§1) TLC plates were stained with either iodine vapor or anisaldehyde solution as described earlier (Jork et al., 1990. Thin-layer chromatography reagents and detection methods, vol. 1a. Physical and chemical detection methods: fundamentals, reagents. VHC, Weinheim, Germany). Palmitoyl palmitate and triolein were used as WE and TAG reference compounds, respectively.

WS2 [2] = biological target: T1, WS2 (Marinobacter nauticus, UniProt A3RE51); test: DGAT assay (TLC); format: biochemical, Marinobacter hydrocarbonoclasticus DSM 8798; settings: oleoyl-CoA as acyl donor, dipalmitoyl-glycerol as acyl acceptor
T1 sequence (A3RE51 entry or part of it): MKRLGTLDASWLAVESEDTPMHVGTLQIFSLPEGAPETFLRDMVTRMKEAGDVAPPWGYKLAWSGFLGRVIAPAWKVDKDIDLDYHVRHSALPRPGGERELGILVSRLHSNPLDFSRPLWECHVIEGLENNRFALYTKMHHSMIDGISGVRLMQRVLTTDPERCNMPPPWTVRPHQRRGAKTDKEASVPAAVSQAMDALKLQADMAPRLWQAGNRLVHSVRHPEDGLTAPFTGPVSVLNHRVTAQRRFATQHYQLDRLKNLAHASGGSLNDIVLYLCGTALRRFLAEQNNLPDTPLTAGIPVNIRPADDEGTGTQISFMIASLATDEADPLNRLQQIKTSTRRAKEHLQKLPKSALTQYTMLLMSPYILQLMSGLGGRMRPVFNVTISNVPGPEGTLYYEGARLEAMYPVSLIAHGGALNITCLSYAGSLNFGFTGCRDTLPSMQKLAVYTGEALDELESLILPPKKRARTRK
Description: as §1

WS2 [3] = biological target: T1, WS2; test: WS2 kinetics on ethanol and oleoyl-CoA (DTNB); format: biochemical, Marinobacter hydrocarbonoclasticus
Procedure: […] Assay reactions were pre-incubated at 37° C. for 5 minutes before the reactions were started by the addition of enzyme.

Acs2 = test: CoA synthetase assay (HPLC, LC-MS); format: biochemical, Marinobacter hydrocarbonoclasticus DSM 8798; settings: 10 mM acid, 20 min at 37° C.
Procedure: (§2) In vitro reactions were performed as described previously (Trivedi et al., 2004, Nature, 428:441-445) with some modifications. CoA synthetase assays were carried out in 250-μl reaction volumes containing 50 mM Tris-HCl buffer (pH 7.5), 0.1% Triton X-100, 10 mM MgCl2, 5 mM TCEP, 0.1 U of inorganic pyrophosphatase, and as substrates 10 mM phytanic or fatty acids, 10 mM reduced coenzyme A (CoASH), 10 mM ATP, and 0.5 μg of purified Acs (either 1, 2, 3, or 4) protein. The reactions were incubated for 20 min at 37° C. and stopped with 25 μl of 5% acetic acid, followed by HPLC analysis of the reaction products.
(§3) CoA-synthetase assay samples (25 μl) were resolved on an Agilent 1100 HPLC (Agilent Technologies, Palo Alto, Calif.) equipped with a photodiode array detector set to 259 nm. Samples were separated on a reversed-phase Eclipse XDB-C8 column (Agilent Technologies) at a flow rate of 1 ml min^−1. Solvent A consisted of 20 mM ammonium acetate (pH 5.4) in HPLC-grade water, and solvent B contained acetonitrile and methanol (85:15 [vol/vol]). Acyl-CoA and phytanoyl-CoA products were eluted using the following conditions: solvent A-solvent B at 65:35 from 0 to 5 min, followed by a gradient from solvent A-solvent B at 65:35 to 100% solvent B in 30 min. Liquid chromatography-mass spectrometry (LC-MS) analyses of reaction products were done with an LCQ mass spectrophotometer equipped with an electrospray ionization source (ESI) (Thermo Finnigan). Mass fragmentation spectra were monitored in a mass range of m/z 400 to 1,500 with a negative ESI interface.

Acs3 = test: CoA synthetase assay (HPLC, LC-MS); format: biochemical, Marinobacter hydrocarbonoclasticus DSM 8798; settings: 10 mM acid, 20 min at 37° C.
Procedure: as §2, §3

Acs4 = test: CoA synthetase assay (HPLC, LC-MS); format: biochemical, Marinobacter hydrocarbonoclasticus DSM 8798; settings: 10 mM acid, 20 min at 37° C.
Procedure: as §2, §3

WS1 [4] = test: Coupled enzyme assay, WS substrate profile (TLC); format: biochemical, Marinobacter hydrocarbonoclasticus DSM 8798; parameters: key to WE formation (spot intensity of wax ester products on TLC), WS1, C10 / WE formation (spot intensity of wax ester products on TLC), WS1, C12 / WE formation (spot intensity of wax ester products on TLC), WS1, C14 / WE formation (spot intensity of wax ester products on TLC), WS1, C16 / WE formation (spot intensity of wax ester products on TLC), WS1, Phytol / WE formation (spot intensity of wax ester products on TLC), WS1, Farnesol: no activity (−); ranging from no activity (−) to most active (+++); ranging from no activity (−) to most active (+++); most active (+++); settings: for WE formation (spot intensity of wax ester products on TLC), WS1, Farnesol: alcohol farnesol; for WE formation (spot intensity of wax ester products on TLC), WS1, Farnesol / WE formation (spot intensity of wax ester products on TLC), WS1, Phytol / WE formation (spot intensity of wax ester products on TLC), WS1, C10 / WE formation (spot intensity of wax ester products on TLC), WS1, C12 / WE formation (spot intensity of wax ester products on TLC), WS1, C14 / WE formation (spot intensity of wax ester products on TLC), WS1, C16: 12 h at 37° C., each substrate 250 μM; for WE formation (spot intensity of wax ester products on TLC), WS1, Phytol: alcohol phytol; for WE product formation by WS1 (TLC), in words: coupled reaction, palmitic acid with hexadecanol, phytanic acid with phytol, phytanoyl-CoA with the alcohols named in the value; for WE formation (spot intensity of wax ester products on TLC), WS1, C10: fatty alcohol C10; for WE formation (spot intensity of wax ester products on TLC), WS1, C12: fatty alcohol C12; for WE formation (spot intensity of wax ester products on TLC), WS1, C14: fatty alcohol C14; for WE formation (spot intensity of wax ester products on TLC), WS1, C16: fatty alcohol C16
Procedure: (§4) Stock solutions of various substrates were prepared in 50 mM Tris-HCl buffer (pH 8) containing 1% gum arabic, 12.5 μg bovine serum albumin ml^−1, 0.1% taurocholate, and either 100 mM fatty acid, isoprenoid acid, fatty alcohol, or isoprenoid alcohol. Stock solutions were sonicated to disperse the substrates. Substrate profiles of the three WS were tested using coupled enzyme in vitro reactions in which the CoA synthetases Acs1 and Acs2 are added to synthesize the CoA-activated fatty acid phytanic acid substrates from corresponding acid precursors for the WS reactions. Assays were carried out in 500-μl reactions containing in 50 mM Tris-HCl buffer (pH 8.0), 12.5 μl of each acid, and alcohol substrate stock solution (final concentrations of each substrate of 250 μM), 10 mM MgCl2, 10 mM CoASH, 10 mM ATP, 5 mM TCEP, 0.1 U of inorganic pyrophosphatase, 0.25 μg of Acs1 and Acs2 CoA synthetase, and 0.5 μg of WS to be tested. Assays were incubated at 37° C. overnight before thin-layer chromatography (TLC) analysis of the reaction products.
as §1, with “In vitro WS assay samples were extracted with 500 μl of chloroformmethanol (1:1 [vol/vol]), and extracts were analyzed by TLC with Whatman normal phase silica gel 60 plates and developed using hexane-diethyl ether-acetic acid (90:10:1 [vol/vol/vol]). TLC” for “TLC”

WS3 = test: Coupled enzyme assay, WS substrate profile (TLC); format: biochemical, Marinobacter hydrocarbonoclasticus DSM 8798; settings: coupled reaction; palmitic acid with hexadecanol, phytanic acid with phytol
Procedure: as §4
(§5) In vitro WS assay samples were extracted with 500 μl of chloroformmethanol (1:1 [vol/vol]), and extracts were analyzed by TLC with Whatman normal phase silica gel 60 plates and developed using hexane-diethyl ether-acetic acid (90:10:1 [vol/vol/vol]). […]

WS2 [5] = biological target: T1, WS2; test: Coupled enzyme assay, WS substrate profile (TLC); format: biochemical, Marinobacter hydrocarbonoclasticus DSM 8798; parameters: key to WE formation (spot intensity of wax ester products on TLC), WS2, C16 / WE formation (spot intensity of wax ester products on TLC), WS2, Phytol / WE formation (spot intensity of wax ester products on TLC), WS2, Farnesol / WE formation (spot intensity of wax ester products on TLC), WS2, C10 / WE formation (spot intensity of wax ester products on TLC), WS2, C12 / WE formation (spot intensity of wax ester products on TLC), WS2, C14: no activity (−); ranging from no activity (−) to most active (+++); ranging from no activity (−) to most active (+++); most active (+++); settings: for WE formation (spot intensity of wax ester products on TLC), WS2, Farnesol: alcohol farnesol; for WE formation (spot intensity of wax ester products on TLC), WS2, Farnesol / WE formation (spot intensity of wax ester products on TLC), WS2, Phytol / WE formation (spot intensity of wax ester products on TLC), WS2, C10 / WE formation (spot intensity of wax ester products on TLC), WS2, C12 / WE formation (spot intensity of wax ester products on TLC), WS2, C14 / WE formation (spot intensity of wax ester products on TLC), WS2, C16: 12 h at 37° C., each substrate 250 μM; for WE formation (spot intensity of wax ester products on TLC), WS2, Phytol: alcohol phytol; for WE product formation by WS2 (TLC), in words: coupled reaction, palmitic acid with hexadecanol, phytanic acid with phytol, phytanoyl-CoA with the alcohols named in the value; for WE formation (spot intensity of wax ester products on TLC), WS2, C10: fatty alcohol C10; for WE formation (spot intensity of wax ester products on TLC), WS2, C12: fatty alcohol C12; for WE formation (spot intensity of wax ester products on TLC), WS2, C14: fatty alcohol C14; for WE formation (spot intensity of wax ester products on TLC), WS2, C16: fatty alcohol C16
Procedure: as §4
as §1, with “In vitro WS assay samples were extracted with 500 μl of chloroformmethanol (1:1 [vol/vol]), and extracts were analyzed by TLC with Whatman normal phase silica gel 60 plates and developed using hexane-diethyl ether-acetic acid (90:10:1 [vol/vol/vol]). TLC” for “TLC”

Acs1 = test: CoA synthetase assay (HPLC, LC-MS); format: biochemical, Marinobacter hydrocarbonoclasticus DSM 8798; settings: 10 mM acid, 20 min at 37° C.
Procedure: as §2, §3

Acinetobacter WS/DGAT = biological target: T2, Acinetobacter WS/DGAT (Acinetobacter baylyi, UniProt Q8GGG1); test: Coupled enzyme assay (TLC); format: biochemical, Acinetobacter baylyi ADP1; settings: phytanic acid and phytol as substrates
T2 construct: His6 (N); made in house
T2 sequence (Q8GGG1 1-458): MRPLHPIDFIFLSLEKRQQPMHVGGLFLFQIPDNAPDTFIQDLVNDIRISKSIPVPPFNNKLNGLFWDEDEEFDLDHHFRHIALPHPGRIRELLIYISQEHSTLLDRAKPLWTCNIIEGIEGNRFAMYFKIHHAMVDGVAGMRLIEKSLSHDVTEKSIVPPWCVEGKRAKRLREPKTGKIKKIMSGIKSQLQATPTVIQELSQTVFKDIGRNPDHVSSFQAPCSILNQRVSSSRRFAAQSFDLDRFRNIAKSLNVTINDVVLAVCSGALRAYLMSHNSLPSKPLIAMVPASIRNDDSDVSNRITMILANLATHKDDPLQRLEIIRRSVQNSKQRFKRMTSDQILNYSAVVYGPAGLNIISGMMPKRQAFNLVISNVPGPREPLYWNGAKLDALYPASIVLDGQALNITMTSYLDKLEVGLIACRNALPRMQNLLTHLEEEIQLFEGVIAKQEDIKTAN
Procedure: as §4, §5

FadD = test: CoA synthetase assay (HPLC, LC-MS); format: biochemical, Pseudomonas putida; settings: purified recombinant protein

SMILES	CoA activation by Acs2 (Acs2)	CoA activation by Acs3 (Acs3)	CoA activation by Acs4 (Acs4)	WE formation (spot intensity of wax ester products on TLC), WS1, Farnesol (WS1 [4])	WE formation (spot intensity of wax ester products on TLC), WS1, Phytol (WS1 [4])	WE product formation by WS1 (TLC), in words (WS1 [4])	WE formation (spot intensity of wax ester products on TLC), WS1, C10 (WS1 [4])	WE formation (spot intensity of wax ester products on TLC), WS1, C12 (WS1 [4])	WE formation (spot intensity of wax ester products on TLC), WS1, C14 (WS1 [4])	WE formation (spot intensity of wax ester products on TLC), WS1, C16 (WS1 [4])	WE product formation by WS3 (TLC), in words (WS3)	WE formation (spot intensity of wax ester products on TLC), WS2, Farnesol (WS2 [5])	WE formation (spot intensity of wax ester products on TLC), WS2, Phytol (WS2 [5])	WE product formation by WS2 (TLC), in words (WS2 [5])	WE formation (spot intensity of wax ester products on TLC), WS2, C10 (WS2 [5])	WE formation (spot intensity of wax ester products on TLC), WS2, C12 (WS2 [5])	WE formation (spot intensity of wax ester products on TLC), WS2, C14 (WS2 [5])	WE formation (spot intensity of wax ester products on TLC), WS2, C16 (WS2 [5])	other results
CCCCCCCC/C=C\CCCCCCCC(=O)SCCNC(=O)CCNC(=O)[C@H](O)C(C)(C)COP(=O)(O)OP(=O)(O)OC[C@H]1O[C@@H](n2cnc3c(N)ncnc32)[C@H](O)[C@@H]1OP(=O)(O)O [Oleoyl-CoA]																			DGAT activity of WS1 (TAG product on TLC) (WS1 [1]): TAG products were only detected for WS1; also recorded: Only WS1 shows DGAT activity; DGAT activity of WS2 (TAG product on TLC) (WS2 [2]): did not show DGAT activity; Kcat of WS2 (WS2 [3]; steady state on ethanol and oleoyl-CoA): 59 s⁻¹; Vmax of WS2 (WS2 [3]; steady state, varied substrate 10 μM-250 μM, other substrate (oleoyl-CoA or ethanol) 500 μM): 1667 μmol (mg/min)^−1
CCCCCCCCCCCCCCCC(=O)O [C16, palmitic acid]	most activity	most activity	most activity	++	+	Products were observed	+	++	+	+++	no products were observed	++	+	Products were observed	+	+	++	+++	
CC(C)CCCC(C)CCCC(C)CCCC(C)CC(=O)O (stereo not shown) [Phytanic acid]	converted phytanic acid into phytanoyl-CoA	Only Acs2 converted phytanic acid into phytanoyl-CoA	Only Acs2 converted phytanic acid into phytanoyl-CoA	+	+	Products were observed	−	−	−	−	no products were observed	++	++	Products were observed	−	−	−	−	CoA activation by Acs1 (Acs1): Only Acs2 converted phytanic acid into phytanoyl-CoA; Isoprenoid WE formation by Acinetobacter WS/DGAT (Acinetobacter WS/DGAT): did not show isoprenoid WE formation; CoA activation by P. putida FadD (FadD): does not synthesize phytanoyl-CoA; also recorded: did not activate phytanic acid
